# Results published in publication PMC6270530, “Structural Characterization of de Novo Designed L5K5W Model Peptide Isomers with Potent Antimicrobial and Varied Hemolytic Activities” (Molecules, 2013).
# No end group written: not given here.
# Tests used:
# [1] = test system: Shigella dysentariae ATCC 9752; format: cell-based; settings: broth microdilution, 1–128 μg/mL two-fold dilutions; triplicate, value reproduced twice or three times
# Description: (§1) The antimicrobial activity of each peptide was determined against four strains of Gram-positive bacteria (Bacillus subtilis ATCC 6633, Staphylococcus aureus ATCC 6538p, Staphylococcus epidermis ATCC 12228, and Micrococcus luteus ATCC 10240) and five strains of Gram-negative bacteria (Escherichia coli ATCC 25922, Shigella dysentariae ATCC 9752, Salmonella typhomurium ATCC 14028, Klebsiella pneumoniae ATCC 10031, and Pseudomonas aeruginosa ATCC 27853). In addition, a methicillin-resistant Staphylococcus aureus strain, MRSA-TK784 [21, 42], was employed as a multi-drug resistant bacterium. Antimicrobial susceptibility was measured as the minimal inhibitory concentration (MIC), which was determined by the standard broth microdilution method, as described previously. […] The tests were performed in triplicate, and the MIC values that were reproduced twice or three times in the three independent measurements were recorded.
# [2] = test system: 4 Gram-positive strains tested; format: cell-based, Gram-positive bacteria; settings: against 4 Gram-positive strains tested
# Description: (§2) Table 1 summarizes the MIC values of our model peptide isomers against various bacterial species, including four Gram-positive, five Gram-negative and a multi-drug resistant strain. […] In addition, all of the peptides were fairly active (MICs ≤ 16 μg/mL) against the MRSA-TK784 strain, which is not susceptible to β-lactam antibiotics and protein synthesis inhibitors and moderately resistant to vancomycin [21, 42].
# as §1
# [3] = test system: 5 Gram-negative strains tested; format: cell-based, Gram-negative bacteria; settings: against 5 Gram-negative strains tested
# Description: as §2, §1
# [4] = test system: all of the 9 strains tested; format: cell-based, Gram-positive and Gram-negative bacteria; settings: against all of the 9 strains tested
# Description: as §2, §1
# [5] = test system: human red blood cells; format: cell-based
# Description: The hemolytic assay was performed as described previously. In brief, suspensions of human red blood cells (10% v/v in PBS) were treated for 1 h with various concentrations (1–128 μg/mL, two-fold serial dilutions) of the peptides. The absorbance of the supernatant was then measured at 550 nm. The relative value to 100% hemolysis of human red blood cells treated with 0.2% Triton X-100 was defined as the percentage of hemolysis. The tests were performed using triplicate samples, and the average values of the three independent measurements were recorded. The minimal hemolytic concentration (MHC) value was determined as the lowest peptide concentration that produces more than 5% hemolysis.
# [6] = test system: MRSA-TK784; format: cell-based, methicillin-resistant Staphylococcus aureus; settings: Methicillin-Resistant S. aureus; broth microdilution, 1–128 μg/mL two-fold dilutions; triplicate
# Description: as §1
Substance,"Minimal inhibitory concentration, S. dysentariae [1]","GM (geometric mean of MICs), Gram (+) [2]","GM (geometric mean of MICs), Gram (−) [3]","GM (geometric mean of MICs), Gram (+,−) [4]",hemolytic activity (in words) [5],"Minimal inhibitory concentration, MRSA-TK784 [6]"
KKLLKKLLKWL-NH2 [W10],1 µg/mL,1.2 µg/mL,1.7 µg/mL,1.5 µg/mL,–,–
KKLLKWLKKLL-NH2 [W6],2 µg/mL,–,3.5 µg/mL,3.2 µg/mL,somewhat hemolytic,–
KLLKKLLKWLK-NH2 [W9],2 µg/mL,2.4 µg/mL,2.3 µg/mL,2.3 µg/mL,–,–
KLLKWLKKLLK-NH2 [W5],2 µg/mL,2.0 µg/mL,2.6 µg/mL,2.3 µg/mL,–,–
KWLKKLLKKLL-NH2 [W2],1 µg/mL,2.4 µg/mL,2.3 µg/mL,2.3 µg/mL,–,–
LKKLLKKLLKW-NH2 [W11],2 µg/mL,2.4 µg/mL,3.5 µg/mL,2.9 µg/mL,–,16 µg/mL
LKKLLKWLKKL-NH2 [W7],2 µg/mL,2.4 µg/mL,3.0 µg/mL,2.7 µg/mL,–,–
LKWLKKLLKKL-NH2 [W3],2 µg/mL,–,3.5 µg/mL,3.2 µg/mL,–,–
LLKKLLKWLKK-NH2 [W8],4 µg/mL,3.4 µg/mL,4.6 µg/mL,4.0 µg/mL,–,–
LLKWLKKLLKK-NH2 [W4],2 µg/mL,2.4 µg/mL,3.5 µg/mL,2.9 µg/mL,–,–
WLKKLLKKLLK-NH2 [W1],2 µg/mL,2.4 µg/mL,3.0 µg/mL,2.7 µg/mL,–,8 µg/mL
